Where two headings read alike, the source gives them in different places.
Legend:
[1] = system: Salmonella typhimurium (TA 100 and TA 98); experiment: Ames test; type: cell-based
Protocol: In the Belgian Pat. No. 878,836, Jan. 16, 1980, it is moreover reported that AHA is mutagenic according to the Ames test on two strains of Salmonella typhimurium (TA 100 and TA 98), at the dose of 40,000 μg/plate.
(§1) Mutagenesis. As far as AHA is concerned, it has been previously reported. […] The propionhydroxamic acid is non mutagenic also in the Ames test.

[2] = system: urinary infection caused by urease-producing bacteria; type: in vivo, patient
Source text: The results shown above, pointing out a globally superimposable behavior of AHA and PHA, with the exclusion of the fundamental aspects of the mutagenesis and of the theratogenesis, which are absent in propionhydroxamic acid, prompted to test this latter compound on some clinical cases, hereunder reported. (1) Urinary infection caused by urease-producing bacteria; (2) relapsing renal calculosis.

[3] = Teratogenesis in pregnant female rats
[4] = set-up: species or system "Wistar" rats; conditions: rat, in vivo, po, 200 mg/kg
Protocol: Subacute toxicity. A test lasting 4 weeks has been carried out on the two compounds administered at the dose of 200 mg/kg by oral route to groups of "Wistar" rats, 8 males and 8 females, with daily observation of the behavior, of health status, of feed and water consumption and, twice a week, of the body weight of animals. At the end of 4 weeks the animals have been sacrificed and autopsy and haematological and haematochemical examinations have been performed on them. For all the duration of the test, no anomaly has been noticed in the behavior of both AHA-treated and PHA-treated animals.

[5] = system: chinese hamster embryonal cell cultures; experiment: Mutagenesis: morphological changes of the chromosomes in embryonal cell cultures; type: cell-based; conditions: 1.1 10^-4 M, 24-72 hours of incubation
Source text: as §1

[6] = system: mouse embryonal cell cultures; experiment: as above; type: cell-based; conditions: 1.1 10^-4 M, 24-72 hours of incubation
Source text: as §1

[7] = rat, in vivo, ip, 300 mg/kg
[8] = rabbit, in vivo; for duration of the reduction of the arterial pressure: po, 100 mg/kg
Acute toxicity = conditions: in vivo, mouse
[9] = system: Salmonella typhimurium (TA 100 and TA 98); conditions: strains TA 100 and TA 98, 40,000 μg/plate; cited from earlier work
[10] = system: urease-producing bacteria; conditions: renal lithiasis sustained by urease-producing bacteria; cited from earlier work
[11] = pregnant female rats, 12th day of pregnancy, cited from earlier work
[12] = system: mouse embryonal cell cultures; conditions: 1,1.10^-4 M; cited from earlier work
[13] = system: chinese hamster embryonal cell cultures; conditions: 1,1.10^-4 M; cited from earlier work
[14] = Case 1, 500 mg/die combined with antibiotic therapy
[15] = Case 2, 375 mg/die combined with antibiotic therapy
[16] = Case 4, 500 mg/die with antibiotic therapy, after 3 months
[17] = Case 5, 500 mg/die with antibiotic therapy

## CCC(=O)NO [PHA, propionhydroxamic acid]
[1]
  mutagenicity in the Ames test: non mutagenic
[2]; [14]
  urinary ammonium values: normalization
  urinary pH: normalization
[2]; Case 1, 500 mg/die combined with antibiotic therapy, Proteus mirabilis
  urinary cultures: sterilization of urinary cultures
[2]; Case 2, 375 mg/die
  effect of temporary interruption of the drug: reapparence of urease producing bacteria (Klebsiella)
[2]; [15]
  urinary ammonium values: decrease of urinary ammonium values
  urinary infection: resolution of urinary infection
[2]; Case 2, 375 mg/die combined with antibiotic therapy, Proteus mirabilis and Klebsiella
  urinary acidification: sufficient urinary acidification
[2]; Case 2, 375 mg/die, during 5 months' therapy
  volumetric increase of the lithiasic relapse: not observed
[2]; Case 3
  lithiasic relapse at the left kidney: Absence of lithiasic relapse
[2]; Case 3, combination
  crystalluria: non pathologic crystalluria
[2]; Case 3, combination, Proteus mirabilis
  urinary ammonium: normalization
[2]; Case 4, 500 mg/die
  lithiasic relapse at the left kidney: no lithiasic relapse
[2]; [16]
  crystalluria: normalization
  urinary pH: normalization
[2]; Case 4, 500 mg/die with antibiotic therapy, after 3 months, Proteus mirabilis and Klebsiella
  ammonium values: normalization
[2]; [17]
  growth of the already present lithiasic formation: stopping of the growth
  onset of further relapses: lacking onset of further relapses
  urinary infection: resolution of urinary infection
  urinary pH: normalization
[2]; Case 5, 500 mg/die with antibiotic therapy, Proteus mirabilis
  urinary ammonium: normalization
[3]; intraperitoneal, once on the 13th day of pregnancy, 300 mg/kg
  dead fetuses: 55%
[4]
  autoptical examination of the main organs (thymus, testes, heart, liver): hypotrophy of the main organs
  behavior of animals: no anomaly
  feed consumption: decrease
  haematochemical parameters, AHA versus PHA: No remarkable differences
  macroscopic lesion of the main organs: no macroscopic lesion
[5]
  morphologic change of the chromosomes provoked by damages at DNA: did not induce
[6]
  morphologic change of the chromosomes provoked by damages at DNA: did not induce
[7]
  morphological development of the survived fetuses: perfectly normal development
[8]; 50 mg/kg
  blood pressure: does not change
  heart rate: does not change
[8]
  duration of the reduction of the arterial pressure: 10 to 30 min
Acute toxicity; oral route, confidence limits in brackets
  LD50: 2370 mg/kg

## CC(=O)NO [AHA, acetohydroxamic acid, reference compound]
[9]
  mutagenicity in the Ames test: mutagenic
[10]
  drug's action on urinary ammonium and urinary pH: decrease of urinary ammonium and urinary pH
[11]; i.p. 750 mg/kg una tantum
  fetuses with deformations: 50%
[11]; i.p. 1000 mg/kg una tantum
  deaths of fetuses: 55%
  deformations in the survived fetuses: 100%
[11]; i.p. 1500 mg/kg una tantum
  reabsorption of fetuses: 100%
[3]; dose for AHA not stated at this place
  dead fetuses (comparison value): 50%
[4]
  autoptical examination of the main organs (thymus, testes, heart, liver): hypotrophy of the main organs
  behavior of animals: no anomaly
  feed consumption: decrease
  haematochemical parameters, AHA versus PHA: No remarkable differences
  macroscopic lesion of the main organs: no macroscopic lesion
[8]; 50 mg/kg
  reduction of the mean arterial pressure: 15%
  time after administration at which the reduction of mean arterial pressure is still present: ≥ 120 min
[8]
  duration of the reduction of the arterial pressure: > 120 min
Acute toxicity; po
  LD50: 2740 mg/kg
[12]
  morphological changes of the chromosomes provoked by damages at DNA: causes morphological changes of the chromosomes
[13]
  morphological changes of the chromosomes provoked by damages at DNA: causes morphological changes of the chromosomes

Reference: patent US4499107A, “Method for treating infected renal calculosis” (Dr. L^o. Zambeletti, S.p.A., priority 1981, dated 1985)
